Experimental data taken from patent US4338330A, “Benzimidazole derivatives, their use, and compositions containing these derivatives” (Continental Pharma, priority 1979, dated 1982).
Structures can show the parent of a compound that is named as a salt. Where two headings read alike, the source gives them in different places.

Columns and labels:
[1] = Peripheral vasodilator activity, anesthetized dog, femoral arterial circulation; type: in vivo; conditions: 30 μg/kg injected directly
Protocol: The peripheral vasodilator activity was measured on anesthetized dog at the level of femoral arterial circulation. To this end, the femoral artery the collaterals of which have been ligated is perfused at constant rate with blood taken from aorta. The perfusion pressure measured at the level of the femoral artery thus varies as a function of the resistance of the perfused area. The tested products and the corresponding solvents are directly injected at the dose of 30 μg/kg. The cardiac output being maintained constant, a vasodilation is thus measured by a decrease of the perfusion pressure. The latter is scored in comparison with the action of papaverine, considered as a reference and injected one time by group of 4 products. When interesting, the products are tested with other doses under the same conditions.
The vasodilator activity is appreciated as follows: […]

[2] = LD50 in mice, oral (Lichtfield and Wilcoxon method); type: in vivo
Protocol: LD50 were determined according to the Lichtfield and Wilcoxon method (J. Pharmacol. Exp. Ther. 96, 99, 1949) and expressed in mg/kg. The products were administered to mice orally.

[3] = system: isolated guinea pig auricles; assay: Chronotrope effect of the substance on isolated auricles; conditions: 10^-6 M, 20 minutes, Tyrode, 29° C.
Protocol: The β-lytic effect was searched on the chronotropic response to noradrenaline of isolated guinea pig auricles. Auricles were incubated for 20 minutes in a Tyrode solution at 29° C. in the presence of the substance to be tested at the concentration of 10^-6 M. A positive (+) or negative (-) chronotrope effect of the substance was noted using the following scores: […]

[4] = Antihypertensive activity, oral, unanesthetized spontaneously hypertensive rats; type: in vivo
Protocol: […] Only rats having a systolic pressure of 180 to 220 mm Hg are used. Two rats are used by product. The treatments are administered without the knowledge of the person making the measure.
The antihypertensive effects were recorded according to a score followed by an index. The scoring system is as follows.
The index is calculated by multiplying the systolic pressure difference (cmHg) measured every 30 minutes after the treatment, by a coefficient of 1 to 6 corresponding to times of 30 to 180 minutes.

[5] = system: chronotropic response to noradrenaline of isolated guinea pig auricles; assay: β-lytic effect on the chronotropic response to noradrenaline of isolated auricles
Protocol: The β-lytic effect was searched on the chronotropic response to noradrenaline of isolated guinea pig auricles. Auricles were incubated for 20 minutes in a Tyrode solution at 29° C. in the presence of the substance to be tested at the concentration of 10^-6 M. A positive (+) or negative (-) chronotrope effect of the substance was noted using the following scores:
Then, the chronotrope effect of cumulative increasing concentrations of noradrenaline was recorded. The pD2 (-log CE50) value was calculated. A score of β-lytic activity of the substance was given as follows:
If the score at concentration of 10^-6 M was 3 or 4, the effect of the substance was examined at concentration of 10^-7 M and a score was recorded according to the same procedure.

[6] = system: guinea pig ileum contractions induced by histamine; assay: Antispasmodic activity against ileum contractions induced by histamine
Protocol: (§1) The antispasmodic activity of the studied substances was examined against guinea pig ileum contractions induced by histamine and acetylcholine.
(§2) These experiences allow to make it obvious an antihistaminic, anticholinergic or musculotrope activity. The response to the contracting agent (sub-maximum concentration) is obtained every 5 minutes before and after injection of increasing concentrations of tested products (10^-7 M to 10^-4 M). The inhibition percentage under the influence of tested products is calculated and the theoretical concentration giving 50% of inhibition is graphically determined for each experience. These values are expressed in -log CI50 (M).

[7] = system: guinea pig ileum contractions induced by acetylcholine; assay: Antispasmodic activity against ileum contractions induced by acetylcholine
Protocol: as §1, §2

[8] = system: β1 cardiac receptors versus β2 tracheal receptors; assay: Cardioselectivity (auricles versus trachea); parameters: species or system guinea pig; conditions: from difference of pA2 on auricles and trachea
Protocol: The effect on β1 cardiac receptors is measured by inhibition of the chronotropic response to noradrenaline of guinea pig auricles and of the inotrope response to isoproterenol of guinea pig left auricles which were electrically stimulated. The cardioselectivity is appreciated by measuring the antagonist effect at the level of β2 receptors of the guinea pig trachea. To this end, a tracheal chain is contracted by a maximum concentration of histamine and inhibition of relaxation by isoproterenol is measured. The values calculated for cardioselectivity are obtained by considering the difference between pA2 values of the chronotrope response and the relaxation on the one hand (1st column) and of the inotrope response and relaxation on the other hand (2nd column). For these various experiences, pA2 is calculated according to the Van Rossum method (Arch. Inern. Pharmacodyn., 143, 299-330, 1963).

[9] = mouse, in vivo, po, read-out: LD50
[10] = 60 mg/kg oral, spontaneously hypertensive rats
[11] = 60 mg/kg oral, systolic pressure difference (cmHg) every 30 min multiplied by time coefficient 1 to 6

Structure (SMILES): CC(CCc1ccccc1)NCC(O)COc1ccc(-c2nc3ccccc3[nH]2)cc1 (stereo not drawn) [Compound 7]
- Peripheral vasodilator activity [1]: active
- LD50 [2, 9]: > 3000 mg/kg
- Chronotrope effect (score) [3]: 0 (if the frequency modification was comprised between +6 and -6)
- Antihypertensive activity (score) [4, 10]: + (reduction of 10 to 20 mm Hg)
- Antihypertensive activity (index) [4, 11]: 18
- β-lytic effect (score) ([5]; 10^-6 M): 0 (if pD2 ≥6.81)
- Antispasmodic activity, Hist. (-log CI50 (M)) [6]: 6.25 -log CI50 (M)
- Antispasmodic activity, Ac. Chol. (-log CI50 (M)) [7]: 6.23 -log CI50 (M)

Structure (SMILES): COCCc1ccc(OCC(O)CNC(C)C)cc1 (stereo not drawn) [Metroprolol, reference compound]
- times more active on β cardiac receptors than on β2 receptors [8]: 65 times

Structure (SMILES): OC(CNCCOc1ccccc1)COc1ccc(-c2nc3ccccc3[nH]2)cc1 (stereo not drawn) [Compound 3, 2-{4-[3-(2-phenoxyethylamino)-2-hydroxypropoxy]phenyl}benzimidazole]
- Peripheral vasodilator activity [1]: active
- LD50 [2, 9]: > 3000 mg/kg
- Chronotrope effect (score) [3]: 0 (if the frequency modification was comprised between +6 and -6)
- Antihypertensive activity (score) [4, 10]: +++ (reduction of 30 to 50 mm Hg)
- Antihypertensive activity (index) [4, 11]: 50
- β-lytic effect (score) ([5]; 10^-6 M): 2 (if 6.40≥pD2 ≥6.01)
- Antispasmodic activity, Hist. (-log CI50 (M)) [6]: 6.52 -log CI50 (M)
- Antispasmodic activity, Ac. Chol. (-log CI50 (M)) [7]: 6.43 -log CI50 (M)

Structure (SMILES): OC(CNCCCCSc1ccccc1)COc1ccc(-c2nc3ccccc3[nH]2)cc1 (stereo not drawn) [Compound 23]
- Peripheral vasodilator activity [1]: active
- Chronotrope effect (score) [3]: 0 (if the frequency modification was comprised between +6 and -6)
- Antihypertensive activity (score) [4, 10]: 0 (reduction <10 mm Hg)
- β-lytic effect (score) ([5]; 10^-6 M): 0 (if pD2 ≥6.81)
- Antispasmodic activity, Hist. (-log CI50 (M)) [6]: 6,05 -log CI50 (M)
- Antispasmodic activity, Ac. Chol. (-log CI50 (M)) [7]: 5,74 -log CI50 (M)

Structure (SMILES): OC(CNCCCCc1ccccc1)COc1ccc(-c2nc3ccccc3[nH]2)cc1 (stereo not drawn) [Compound 6]
- Peripheral vasodilator activity [1]: active
- LD50 [2, 9]: > 3000 mg/kg
- Chronotrope effect (score) [3]: -1
- Antihypertensive activity (score) [4, 10]: 0 (reduction <10 mm Hg)
- β-lytic effect (score) ([5]; 10^-6 M): 0 (if pD2 ≥6.81)
- Antispasmodic activity, Hist. (-log CI50 (M)) [6]: 6.89 -log CI50 (M)
- Antispasmodic activity, Ac. Chol. (-log CI50 (M)) [7]: 7.12 -log CI50 (M)

Structure (SMILES): CC(C)NCC(O)COc1ccc(-c2nc3ccccc3[nH]2)cc1 (stereo not drawn) [Compound 10, 2-[4-(3-isopropylamino-2-hydroxypropoxy)phenyl]benzimidazole]
- LD50 [2]: 1960 mg/kg
- Chronotrope effect (score) [3]: 0 (if the frequency modification was comprised between +6 and -6)
- Antihypertensive activity (index) ([4]; at 10 mg, oral): 61
- Antihypertensive activity (score) ([4]; at 10 mg, oral): +++ (reduction of 30 to 50 mm Hg)
- β-lytic effect (score) ([5]; 10^-6 M): 4 (if pD2 ≤5.50)
- Antispasmodic activity, Hist. (-log CI50 (M)) [6]: 4.31 -log CI50 (M)
- Antispasmodic activity, Ac. Chol. (-log CI50 (M)) [7]: 4.95 -log CI50 (M)

Structure (SMILES): CC(C)NCC(O)COc1ccc(-c2nc3ccccc3[nH]2)cc1 (stereo not drawn) [Compound 11, 2-[4-(3-isopropylamino-2-hydroxypropoxy)phenyl]benzimidazole (dihydrated glucuronate)]
- LD50 [2]: 1494 mg/kg
- Chronotrope effect (score) [3]: 1
- Antihypertensive activity (index) ([4]; at 10 mg, oral): 51
- Antihypertensive activity (score) ([4]; at 10 mg, oral): +++ (reduction of 30 to 50 mm Hg)
- β-lytic effect (score) ([5]; 10^-6 M): 4 (if pD2 ≤5.50)
- Antispasmodic activity, Hist. (-log CI50 (M)) [6]: 4.52 -log CI50 (M)
- Antispasmodic activity, Ac. Chol. (-log CI50 (M)) [7]: 4.30 -log CI50 (M)

Structure (SMILES): Cc1ccc2[nH]c(-c3ccc(OCC(O)CNC(C)C)cc3)nc2c1 (stereo not drawn) [Compound 14, 2-[4-(3-isopropylamino-2-hydroxypropoxy)phenyl]-5(6)-methylbenzimidazole (hydrochloride)]
- LD50 [2, 9]: 1450 mg/kg
- Chronotrope effect (score) [3]: 1
- Antihypertensive activity (score) [4, 10]: ++++ (reduction>50 mm Hg)
- Antihypertensive activity (index) [4, 11]: 83
- β-lytic effect (score) ([5]; 10^-6 M): 4 (if pD2 ≤5.50)
- β-lytic effect (score) ([5]; 10^-7 M): 2 (if 6.40≥pD2 ≥6.01)
- Antispasmodic activity, Hist. (-log CI50 (M)) [6]: 4.85 -log CI50 (M)
- Antispasmodic activity, Ac. Chol. (-log CI50 (M)) [7]: 5.10 -log CI50 (M)

Structure (SMILES): CC(CCc1ccc2c(c1)OCO2)NCC(O)COc1ccc(-c2nc3ccccc3[nH]2)cc1 (stereo not drawn) [Compound 13]
- LD50 [2, 9]: > 1000 mg/kg
- Chronotrope effect (score) [3]: 0 (if the frequency modification was comprised between +6 and -6)
- Antihypertensive activity (score) [4, 10]: 0 (reduction <10 mm Hg)
- β-lytic effect (score) ([5]; 10^-6 M): 2 (if 6.40≥pD2 ≥6.01)
- Antispasmodic activity, Hist. (-log CI50 (M)) [6]: 6.46 -log CI50 (M)
- Antispasmodic activity, Ac. Chol. (-log CI50 (M)) [7]: 6.15 -log CI50 (M)

Structure (SMILES): CC(C)NCC(O)COc1ccc(-c2nc3ccccc3[nH]2)cc1 (stereo not drawn) [Compound 8, 2-[4-(3-isopropylamino-2-hydroxypropoxy)phenyl]benzimidazole]
- LD50 [2]: > 2248 mg/kg
- Chronotrope effect (score) [3]: 0 (if the frequency modification was comprised between +6 and -6)
- Antihypertensive activity (index) ([4]; at 10 mg, oral): 66
- Antihypertensive activity (score) ([4]; at 10 mg, oral): +++ (reduction of 30 to 50 mm Hg)
- β-lytic effect (score) ([5]; 10^-6 M): 4 (if pD2 ≤5.50)
- Antispasmodic activity, Hist. (-log CI50 (M)) [6]: 4.65 -log CI50 (M)
- Antispasmodic activity, Ac. Chol. (-log CI50 (M)) [7]: 4.95 -log CI50 (M)

Structure (SMILES): CC(C)NCC(O)COc1ccc(-c2nc3ccccc3[nH]2)cc1 (stereo not drawn) [Compound 9, 2-[4-(3-isopropylamino-2-hydroxypropoxy)phenyl]benzimidazole]
- LD50 [2]: 2620 mg/kg
- Chronotrope effect (score) [3]: 0 (if the frequency modification was comprised between +6 and -6)
- Antihypertensive activity (index) ([4]; at 10 mg, oral): 68
- Antihypertensive activity (score) ([4]; at 10 mg, oral): +++ (reduction of 30 to 50 mm Hg)
- β-lytic effect (score) ([5]; 10^-6 M): 4 (if pD2 ≤5.50)
- Antispasmodic activity, Hist. (-log CI50 (M)) [6]: 4.75 -log CI50 (M)
- Antispasmodic activity, Ac. Chol. (-log CI50 (M)) [7]: 4.60 -log CI50 (M)
